{"source": "paper PMC6944674", "about": "“Comparison of the Hepatotoxic Potential of Two Treatments for Autosomal-Dominant Polycystic Kidney DiseaseUsing Quantitative Systems Toxicology Modeling” (Pharmaceutical Research, 2020)", "key": {"RNS/ROS formation": {"system": "RNS/ROS formation", "assay": "RNS/ROS production parameter from DILIsym simulation of ROS data", "details": "calculated from 24 h HepG2 ROS data; higher = higher risk", "procedure": "To define the DILIsym parameter values for lixivaptan- and WAY-138451-mediated oxidative stress, the 24 h in vitro data were simulated within DILIsym (Fig. 5). The intracellular concentration of each compound was measured by LC/MS/MS analysis. For lixivaptan, the measured intracellular concentration at each dose was used to parameterize the model. For WAY-138451, however, the LC/MS/MS data was inconsistent at low doses due to lower limit of detection issues. Thus, the mean measured cell-to-nominal-media ratio (0.672) was used to estimate intracellular concentrations at each dose. Reproduction of lixivaptan- and WAY-138451-mediated induction of oxidative stress defined the relationship between liver compound concentration and ROS formation with the reactive nitrogen/oxygen species (RNS/ROS) production rate constants listed in Table 2. […]\nTo define the DILIsym parameter values for lixivaptan- and WAY-138451-mediated oxidative stress, the 24 hour in vitro data were simulated within DILIsym (Figure B12). The intracellular concentration of each compound was measured by LC/MS/MS analysis. For lixivaptan, the measured intracellular concentration at each dose was used to parameterize the model. […] Thus, the mean measured cell-to-nominal-media ratio (0.672) was used to estimate intracellular concentrations at each dose. […]"}, "[1]": {"assay": "Intracellular concentration by LC/MS/MS in HepG2 cultures parallel to ROS high-content screening", "assay_type": "in vitro ADME", "details": "human, HepG2 cells, High content screening medium", "procedure": "(§1) To assess the intracellular concentration of lixivaptan and its metabolites, an identical HepG2 culture was established in parallel and cell lysate concentrations of each test article were measured by LC/MS/MS analysis. Intracellular concentrations of the compounds were calculated by correcting for cell lysate volume (100 µL) and the volume of HepG2 cells in each well, which was calculated by multiplying cell count per well by cellular volume per cell (2.85 pl/cell for HepG2). One independent study in triplicate was conducted to assess intracellular concentrations of the test articles for the ROS (high-content imaging) studies."}, "HepG2 cells": {"system": "HepG2 cells", "assay": "Intracellular concentration by LC/MS/MS in HepG2 cultures parallel to ROS high-content screening", "assay_type": "in vitro ADME", "details": "High content screening medium; for CIntracellular Fraction: cell lysate", "procedure": "as §1"}, "[2]": {"set-up": "method as in proprietary data not shown", "details": "ref proprietary data not shown, cited from earlier work"}}}
{"compound": "Cc1ccc(F)cc1C(=O)Nc1ccc(C(=O)N2Cc3cccn3Cc3ccccc32)c(Cl)c1", "note": "[Lixivaptan, lixivaptan]", "values": [{"measurement": "RNS/ROS production rate constant (DILIsym parameter)", "setting": "RNS/ROS formation", "result": 0.151, "unit": "M⁻¹ s⁻¹"}, {"measurement": "Kp at 5 µM", "setting": "[1]; dose 5 µM", "result": "17.6 ± 18.4"}, {"measurement": "Kp at 10 µM", "setting": "[1]; dose 10 µM", "result": "39.7 ± 6.49"}, {"measurement": "Kp at 25 µM", "setting": "[1]; dose 25 µM", "result": "19.9 ± 4.54"}, {"measurement": "Kp at 40 µM", "setting": "[1]; dose 40 µM", "result": "12.9 ± 2.68"}, {"measurement": "CExtracellular Fraction", "setting": "HepG2 cells; dose 0.01 µM", "result": "0.000 ± 0.000", "unit": "µM"}, {"measurement": "CHepatocyte", "setting": "HepG2 cells; dose 0.01 µM", "result": "0.000 ± 0.000", "unit": "µM"}, {"measurement": "CIntracellular Fraction", "setting": "HepG2 cells; dose 0.01 µM", "result": "0.000 ± 0.000", "unit": "µM"}, {"measurement": "CExtracellular Fraction", "setting": "HepG2 cells; dose 0.1 µM", "result": "0.001 ± 0.001", "unit": "µM"}, {"measurement": "CHepatocyte", "setting": "HepG2 cells; dose 0.1 µM", "result": "0.000 ± 0.000", "unit": "µM"}, {"measurement": "CIntracellular Fraction", "setting": "HepG2 cells; dose 0.1 µM", "result": "0.000 ± 0.000", "unit": "µM"}, {"measurement": "CExtracellular Fraction", "setting": "HepG2 cells; dose 0.5 µM", "result": "0.020 ± 0.001", "unit": "µM"}, {"measurement": "CHepatocyte", "setting": "HepG2 cells; dose 0.5 µM", "result": "0.000 ± 0.000", "unit": "µM"}, {"measurement": "CIntracellular Fraction", "setting": "HepG2 cells; dose 0.5 µM", "result": "0.000 ± 0.000", "unit": "µM"}, {"measurement": "CExtracellular Fraction", "setting": "HepG2 cells; dose 1 µM", "result": "0.047 ± 0.001", "unit": "µM"}, {"measurement": "CHepatocyte", "setting": "HepG2 cells; dose 1 µM", "result": "0.000 ± 0.000", "unit": "µM"}, {"measurement": "CIntracellular Fraction", "setting": "HepG2 cells; dose 1 µM", "result": "0.000 ± 0.000", "unit": "µM"}, {"measurement": "CExtracellular Fraction", "setting": "HepG2 cells; dose 5 µM", "result": "0.345 ± 0.011", "unit": "µM"}, {"measurement": "CHepatocyte", "setting": "HepG2 cells; dose 5 µM", "result": "6.02 ± 6.30", "unit": "µM"}, {"measurement": "CIntracellular Fraction", "setting": "HepG2 cells; dose 5 µM", "result": "0.0013 ± 0.0016", "unit": "µM"}, {"measurement": "CExtracellular Fraction", "setting": "HepG2 cells; dose 10 µM", "result": "0.736 ± 0.055", "unit": "µM"}, {"measurement": "CHepatocyte", "setting": "HepG2 cells; dose 10 µM", "result": "28.44 ± 5.12", "unit": "µM"}, {"measurement": "CIntracellular Fraction", "setting": "HepG2 cells; dose 10 µM", "result": "0.0054 ± 0.0032", "unit": "µM"}, {"measurement": "CExtracellular Fraction", "setting": "HepG2 cells; dose 25 µM", "result": "2.751 ± 0.143", "unit": "µM"}, {"measurement": "CHepatocyte", "setting": "HepG2 cells; dose 25 µM", "result": "55.57 ± 15.10", "unit": "µM"}, {"measurement": "CIntracellular Fraction", "setting": "HepG2 cells; dose 25 µM", "result": "0.0093 ± 0.0055", "unit": "µM"}, {"measurement": "CExtracellular Fraction", "setting": "HepG2 cells; dose 40 µM", "result": "5.773 ± 0.508", "unit": "µM"}, {"measurement": "CHepatocyte", "setting": "HepG2 cells; dose 40 µM", "result": "71.75 ± 11.05", "unit": "µM"}, {"measurement": "CIntracellular Fraction", "setting": "HepG2 cells; dose 40 µM", "result": "0.0114 ± 0.0058", "unit": "µM"}, {"measurement": "plasma fraction unbound", "setting": "[2]; human", "result": "less than 1%"}, {"measurement": "blood:plasma ratio", "setting": "[2]", "result": 0.6}]}
